For assay [1], the target named is T1, Human immunodeficiency virus type 1 reverse transcriptase (Human immunodeficiency virus 1, UniProt Q72547). Put plainly: Competitive inhibition of C-Terminal histidine-tagged wild type heterodimeric HIV-1 reverse transcriptase p66/p51 assessed as inhibition of dGTP incorporation after 15 mins by PAGE.
Assay [2] deals with T1, Human immunodeficiency virus type 1 reverse transcriptase. Nature of the assay: Competitive inhibition of C-Terminal histidine-tagged wild type heterodimeric HIV-1 reverse transcriptase p66/p51 assessed as inhibition of dTTP incorporation after 15 mins by PAGE.

As a reminder, the IC50 is the point on the concentration scale where inhibition reaches its midpoint. In the case of `Cc1cc(C#CCOCCOCCOCCOCCOCC#Cc2cn([C@H]3C=C[C@@H](COP(=O)(O)OP(=O)(O)OP(=O)(O)O)O3)c(=O)[nH]c2=O)cc(C)c1Oc1ccnc(Nc2ccc(C#N)cc2)n1`, the results for the concentration for half-maximal inhibition (IC50) in assay [1] and in assay [2] were 42 nM and 3 nM, respectively.
For the compound `C#CCOCCOCCOCCOCCOCC#Cc1cc(C)c(Oc2ccnc(Nc3ccc(C#N)cc3)n2)c(C)c1`, the IC50 in assay [1] was 64 nM; in assay [2], 122 nM.
Take `Cc1cc(C#N)cc(C)c1Oc1ccnc(Nc2ccc(C#N)cc2)n1`: the IC50 was 9 nM in assay [1] and 13 nM in assay [2].
For `Cc1cn([C@H]2C=C[C@@H](COP(=O)(O)OP(=O)(O)OP(=O)(O)O)O2)c(=O)[nH]c1=O` [STAVUDINE TRIPHOSPHATE], the IC50 in assay [2] turned out to be 13000 nM.
